Assays:
[1] = molecular target: T1, Aurora kinase A (Homo sapiens) (UniProt O14965); experiment: Selectivity interaction (Kinase panel (DSF assay)) EUB0001558a STK6
T1 sequence (whole entry): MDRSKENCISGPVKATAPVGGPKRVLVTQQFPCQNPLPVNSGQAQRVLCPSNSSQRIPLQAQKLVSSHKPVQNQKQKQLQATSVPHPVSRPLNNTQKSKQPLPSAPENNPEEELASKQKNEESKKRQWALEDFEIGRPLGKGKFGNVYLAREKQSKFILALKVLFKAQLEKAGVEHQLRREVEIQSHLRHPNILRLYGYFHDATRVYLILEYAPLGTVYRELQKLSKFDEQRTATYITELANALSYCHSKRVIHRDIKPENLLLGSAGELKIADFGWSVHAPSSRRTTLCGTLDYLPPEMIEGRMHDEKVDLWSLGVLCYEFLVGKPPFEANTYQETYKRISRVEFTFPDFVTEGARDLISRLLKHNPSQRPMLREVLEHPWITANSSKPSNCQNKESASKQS

Histamine H1 receptor [2] = molecular target: T2, Histamine H1 receptor (Homo sapiens, UniProt P35367); experiment: Selectivity interaction (Histamine H1 receptor assay, human recombinant ) EUB0000877a HRH1
T2 sequence (P35367 whole entry): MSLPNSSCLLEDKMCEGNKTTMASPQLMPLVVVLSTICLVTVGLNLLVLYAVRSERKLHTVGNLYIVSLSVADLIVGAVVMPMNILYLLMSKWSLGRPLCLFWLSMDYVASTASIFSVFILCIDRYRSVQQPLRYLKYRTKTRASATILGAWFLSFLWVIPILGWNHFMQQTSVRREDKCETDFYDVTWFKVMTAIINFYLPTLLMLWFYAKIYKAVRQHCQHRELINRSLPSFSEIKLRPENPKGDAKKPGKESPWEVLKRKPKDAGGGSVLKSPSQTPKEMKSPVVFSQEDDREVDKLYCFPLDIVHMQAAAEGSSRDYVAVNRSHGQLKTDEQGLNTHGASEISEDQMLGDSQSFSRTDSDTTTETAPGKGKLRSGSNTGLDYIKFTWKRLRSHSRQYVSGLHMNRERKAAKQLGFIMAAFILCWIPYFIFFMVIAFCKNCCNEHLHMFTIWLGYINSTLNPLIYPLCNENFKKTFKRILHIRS

Histamine H1 receptor [3] = molecular target: T2, Histamine H1 receptor; experiment: Selectivity interaction (Panel of kinases, GPCRs, ion channels and transporters (enzymatic assay)) EUB0000223bCl HRH1
[4] = molecular target: T3, Serine/threonine-protein kinase haspin (Homo sapiens) (UniProt Q8TF76); experiment: Selectivity interaction (KinomeScan (DiscoverX)) EUB0000607a GSG2; details: at 10 µM
T3 sequence (whole entry): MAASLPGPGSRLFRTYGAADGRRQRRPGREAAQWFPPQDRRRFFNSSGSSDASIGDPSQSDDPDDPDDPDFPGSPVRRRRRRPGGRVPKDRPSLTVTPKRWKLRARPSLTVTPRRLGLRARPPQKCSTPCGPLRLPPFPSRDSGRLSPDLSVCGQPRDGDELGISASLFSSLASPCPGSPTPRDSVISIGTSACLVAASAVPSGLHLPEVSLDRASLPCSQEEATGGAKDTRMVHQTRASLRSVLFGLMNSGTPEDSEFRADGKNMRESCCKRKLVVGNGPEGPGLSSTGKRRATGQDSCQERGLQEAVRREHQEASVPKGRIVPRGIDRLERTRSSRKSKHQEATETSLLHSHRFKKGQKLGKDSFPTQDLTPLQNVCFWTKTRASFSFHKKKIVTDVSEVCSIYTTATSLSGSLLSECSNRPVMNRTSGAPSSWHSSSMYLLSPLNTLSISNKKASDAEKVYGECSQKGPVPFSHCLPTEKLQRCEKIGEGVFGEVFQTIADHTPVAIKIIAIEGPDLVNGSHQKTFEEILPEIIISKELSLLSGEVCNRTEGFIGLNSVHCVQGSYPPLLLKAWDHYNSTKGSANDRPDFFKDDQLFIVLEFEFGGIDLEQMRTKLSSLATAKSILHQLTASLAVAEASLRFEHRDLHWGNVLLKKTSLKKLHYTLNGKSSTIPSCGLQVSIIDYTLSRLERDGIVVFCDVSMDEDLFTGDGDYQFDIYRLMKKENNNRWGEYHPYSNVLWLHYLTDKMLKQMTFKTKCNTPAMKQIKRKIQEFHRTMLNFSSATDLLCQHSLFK

[5] = molecular target: T4, Serine/threonine-protein kinase Nek10 (Homo sapiens) (UniProt Q6ZWH5); experiment: Selectivity interaction (KinomeScan (DiscoverX)) EUB0001049a NEK10; details: at 1 µM
T4 sequence (whole entry): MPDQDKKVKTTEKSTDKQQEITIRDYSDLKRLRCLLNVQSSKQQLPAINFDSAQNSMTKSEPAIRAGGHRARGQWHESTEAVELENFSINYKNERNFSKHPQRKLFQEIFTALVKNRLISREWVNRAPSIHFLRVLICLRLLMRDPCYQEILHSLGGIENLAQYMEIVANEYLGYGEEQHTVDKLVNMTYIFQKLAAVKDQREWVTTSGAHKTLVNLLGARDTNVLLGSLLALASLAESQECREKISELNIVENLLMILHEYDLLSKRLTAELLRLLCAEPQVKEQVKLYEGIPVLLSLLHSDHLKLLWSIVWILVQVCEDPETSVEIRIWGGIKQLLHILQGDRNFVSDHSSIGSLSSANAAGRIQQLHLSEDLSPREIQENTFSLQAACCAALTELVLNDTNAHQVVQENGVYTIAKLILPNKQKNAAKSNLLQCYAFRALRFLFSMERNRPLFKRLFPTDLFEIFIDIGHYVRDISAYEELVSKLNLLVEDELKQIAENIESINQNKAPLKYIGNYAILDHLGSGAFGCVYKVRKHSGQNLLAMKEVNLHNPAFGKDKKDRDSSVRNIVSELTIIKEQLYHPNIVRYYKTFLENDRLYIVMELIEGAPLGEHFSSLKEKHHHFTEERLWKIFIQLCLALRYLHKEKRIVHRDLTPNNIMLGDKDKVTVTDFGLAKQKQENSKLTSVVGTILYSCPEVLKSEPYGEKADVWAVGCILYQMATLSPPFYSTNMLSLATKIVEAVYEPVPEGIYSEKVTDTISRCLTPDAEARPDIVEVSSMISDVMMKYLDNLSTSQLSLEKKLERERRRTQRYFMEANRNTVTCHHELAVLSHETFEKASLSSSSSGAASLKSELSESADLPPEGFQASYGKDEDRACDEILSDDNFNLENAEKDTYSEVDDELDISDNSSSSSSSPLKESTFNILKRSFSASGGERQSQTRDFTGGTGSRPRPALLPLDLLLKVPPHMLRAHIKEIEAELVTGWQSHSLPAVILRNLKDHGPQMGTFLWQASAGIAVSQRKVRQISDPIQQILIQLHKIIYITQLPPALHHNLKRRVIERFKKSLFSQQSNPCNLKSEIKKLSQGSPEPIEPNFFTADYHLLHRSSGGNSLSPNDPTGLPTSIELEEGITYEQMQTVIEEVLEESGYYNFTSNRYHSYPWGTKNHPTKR

[6] = molecular target: Myosin light chain kinase 2, skeletal/cardiac muscle (Homo sapiens) (UniProt Q9H1R3); experiment: Selectivity interaction (KinomeScan (DiscoverX)) EUB0000045b MYLK2
Chain of Myosin light chain kinase 2, skeletal/cardiac muscle (Homo sapiens) (Q9H1R3 whole entry): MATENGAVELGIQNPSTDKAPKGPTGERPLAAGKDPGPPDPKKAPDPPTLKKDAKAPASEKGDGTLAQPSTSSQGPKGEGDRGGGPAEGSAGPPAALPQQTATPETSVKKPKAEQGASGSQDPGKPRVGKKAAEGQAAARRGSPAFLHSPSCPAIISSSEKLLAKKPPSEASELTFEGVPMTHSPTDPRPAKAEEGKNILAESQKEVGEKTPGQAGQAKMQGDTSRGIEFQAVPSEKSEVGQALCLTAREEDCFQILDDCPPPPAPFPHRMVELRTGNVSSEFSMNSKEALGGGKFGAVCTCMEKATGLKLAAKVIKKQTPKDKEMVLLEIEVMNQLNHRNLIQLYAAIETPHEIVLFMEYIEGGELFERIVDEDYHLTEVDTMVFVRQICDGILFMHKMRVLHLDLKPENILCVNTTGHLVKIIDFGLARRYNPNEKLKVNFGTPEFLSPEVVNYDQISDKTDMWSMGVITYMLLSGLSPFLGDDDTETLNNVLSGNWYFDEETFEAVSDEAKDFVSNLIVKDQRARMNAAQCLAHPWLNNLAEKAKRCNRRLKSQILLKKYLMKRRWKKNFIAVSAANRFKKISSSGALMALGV

## CC(C)(O)[C@H](F)CN1Cc2cc(NC(=O)c3cnn4cccnc34)c(N3CCOCC3)cc2C1=O
[1]
  dTM: 3.3 K

## CCC(=O)N1CC[C@H](Nc2ncnc3c2CN(c2cnc(OC)c(C(F)(F)F)c2)CC3)C1 [LENIOLISIB]
Histamine H1 receptor [2]
  IC50: > 30 µM

## COc1cc(C(=O)N2CC[C@@H](O)[C@@H](N)C2)cc2nc(-c3cc4ccccc4n3CC3CC3)n(C)c12
Histamine H1 receptor [3]
  pXC50: < 4.4 M

## CNC(=O)Nc1ccc(-c2nc(N3CC4CCC(C3)O4)c3cnn(C4CCC5(CC4)OCCO5)c3n2)cc1
[4]
  % of control: 100%

## COc1cc(Nc2nc(C)cc(-c3cnn4nc(OC)ccc34)n2)cc(C(F)(F)F)c1
[5]
  % of control: 100%

## C=CC(=O)Nc1cc(-n2c(=O)ccc3cnc4ccc(-c5ccc(NS(C)(=O)=O)cc5)cc4c32)ccc1C
[6]; at 1 µM
  % of control: 93%
[6]; at 10 µM
  % of control: 100%
